Results as given in ChEMBL document CHEMBL5042482, “Novel Allosteric Inhibitors of Deoxyhypusine Synthase against Malignant Melanoma: Design, Synthesis, and Biological Evaluation” (J Med Chem, 2021).
Values after ≈ are worked out from the molar mass of the structure shown.

How the values were obtained:
Deoxyhypusine synthase = target: T1, Deoxyhypusine synthase (Homo sapiens, UniProt P49366); experiment: Inhibition of DHPS (unknown origin ) incubated for 30 mins by NAD/NADH-Glow assay
T1 sequence (P49366 whole entry): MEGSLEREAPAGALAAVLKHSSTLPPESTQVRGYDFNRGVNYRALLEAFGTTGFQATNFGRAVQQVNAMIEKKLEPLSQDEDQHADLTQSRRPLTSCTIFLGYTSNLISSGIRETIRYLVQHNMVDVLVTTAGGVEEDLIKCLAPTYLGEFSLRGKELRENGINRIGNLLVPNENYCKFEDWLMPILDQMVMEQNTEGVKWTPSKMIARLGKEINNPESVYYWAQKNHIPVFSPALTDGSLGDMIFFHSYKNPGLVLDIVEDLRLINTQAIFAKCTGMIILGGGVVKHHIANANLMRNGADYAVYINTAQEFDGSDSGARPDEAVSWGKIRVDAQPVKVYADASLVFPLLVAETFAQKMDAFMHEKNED

B16 = experiment: Cytotoxicity against mouse B16 cells assessed as reduction in cell viability incubated for 24 hrs by CCK-8 assay; type: functional, cell-based; settings: B16, 24 h
A-375 [1] = experiment: Cytotoxicity against human A-375 cells assessed as reduction in cell viability incubated for 24 hrs by CCK-8 assay; type: functional, cell-based; settings: A-375, 24 h
SK-MEL-28 = experiment: Cytotoxicity against human SK-MEL-28 cells assessed as reduction in cell viability incubated for 24 hrs by CCK-8 assay; type: functional, cell-based; settings: SK-MEL-28, 24 h
[2] = (§1) Cytotoxicity against human HaCaT cells assessed as reduction in cell viability incubated for 24 hrs by CCK-8 assay; type: toxicity, cell-based; settings: HaCaT cells
HaCaT = experiment: as §1; type: toxicity, cell-based; settings: hacat, 24 h
[3] = Aqueous solubility of compound; type: physicochemical; settings: buffer
[4] = Acute toxicity in zebra fish assessed as lethal concentration measured for 96 hrs; set-up: species or system Danio rerio; settings: zebrafish
[5] = AUC (0 to t) in Sprague-Dawley rat at 160 mg/kg, ip by UHPLC-MS analysis; type: ADME, organism-based; set-up: dose 160 mg/kg; settings: in vivo
[6] = AUC (0 to infinity) in Sprague-Dawley rat at 160 mg/kg, ip by UHPLC-MS analysis; type: ADME, organism-based; set-up: route intraperitoneal, time infinity, dose 160 mg/kg; settings: in vivo
[7] = Half life in Sprague-Dawley rat at 160 mg/kg, ip by UHPLC-MS analysis; type: ADME, organism-based; settings: in vivo
[8] = Clearance in Sprague-Dawley rat at 160 mg/kg, ip by UHPLC-MS analysis; type: ADME, organism-based; settings: in vivo
[9] = Volume of distribution in Sprague-Dawley rat at 160 mg/kg, ip by UHPLC-MS analysis; type: ADME, organism-based; settings: in vivo
[10] = Toxicity in Sprague-Dawley rat assessed as effect on serum AST level at 160 mg/kg, ip (reference value: 69.70 to 332.90 U/L); type: organism-based; settings: in vivo
[11] = Toxicity in Sprague-Dawley rat assessed as effect on serum ALT level at 160 mg/kg, ip (reference value: 33.70 to 98.70 U/L); type: organism-based; settings: in vivo
[12] = Toxicity in Sprague-Dawley rat assessed as effect on serum Glu level at 160 mg/kg, ip (reference value: 2.65 to 7.65 mmol/L); type: organism-based; settings: in vivo
[13] = Toxicity in Sprague-Dawley rat assessed as effect on serum CRE level at 160 mg/kg, ip (19.43 to 64.97 micromol/L); type: organism-based; settings: in vivo
[14] = Effect on intracellular ROS content in human HaCaT cells by DCFH-DA staining-based method; type: toxicity, cell-based
A-375 [15] = experiment: Anticancer activity against human A-375 cells xenografted in BALB/c mouse assessed as tumor growth inhibition at 80 mg/kg, ip treated every 3 days measured after 3 weeks relative to control; type: functional; settings: A-375, ip, 504 h, read-out: TGI

| Compound | IC50 (Deoxyhypusine synthase) | IC50 (B16) | IC50 (A-375 [1]) | IC50 (SK-MEL-28) | CC50 at 24 h [2] | further results |
| --- | --- | --- | --- | --- | --- | --- |
| COc1ccccc1Oc1c(N)nc(-c2ccc(Cl)cc2)nc1OCCO | 38.1 µM | 7.74 µM | > 80 µM | > 80 µM | – | – |
| COc1ccc(-c2nc(N)c(Oc3ccccc3OC)c(OCCO)n2)cc1 | – | 18.1 µM | – | – | – | – |
| COc1ccccc1Oc1c(N)nc(-c2cccc(Br)c2)nc1OCCO | 4.31 µM | 21.9 µM | 0.65 µM | 4.04 µM | – | – |
| N=C(N)NCCCCCCCN | 1.72 µM | 5.25 µM | 1.48 µM | 0.79 µM | 3.96 µM | – |
| COc1ccccc1Oc1c(N)nc(-c2ccc(C)cc2)nc1Cl | 59.1 µM | 17.4 µM | > 80 µM | – | 6.3 µM | – |
| COc1ccccc1Oc1c(N)nc(-c2ccc(I)cc2)nc1OCCO | 2.29 µM | 19.6 µM | – | – | – | – |
| COc1ccccc1Oc1c(N)nc(-c2cccc(C)c2)nc1Cl | 33.7 µM | 13.1 µM | 65.3 µM | 54 µM | 11.2 µM | – |
| COc1ccccc1Oc1c(N)nc(-c2cccc(Cl)c2)nc1Cl | 20 µM | 17.9 µM | 38.3 µM | 19.4 µM | > 80 µM | – |
| COc1ccccc1Oc1c(N)nc(-c2ccc(Br)cc2)nc1OCCO | 11.8 µM | 11.8 µM | 10.3 µM | 4.4 µM | – | – |
| COc1cccc(-c2nc(N)c(Oc3ccccc3OC)c(OCCO)n2)c1 | 80 µM | 30.4 µM | – | – | 12.7 µM | – |
| COc1ccccc1Oc1c(N)nc(-c2cccc(I)c2)nc1Cl | 38.7 µM | 27.6 µM | 2.2 µM | 4.66 µM | – | – |
| COc1ccc(-c2nc(N)c(Oc3ccccc3OC)c(Cl)n2)cc1 | 18.2 µM | 47.8 µM | > 80 µM | – | 8.2 µM | – |
| COc1ccccc1Oc1c(N)nc(-c2ccc(F)cc2)nc1OCCO | 2.38 µM | 30.1 µM | 15.9 µM | 20.1 µM | 15.1 µM | – |
| COc1ccccc1Oc1c(N)nc(-c2ccccc2F)nc1OCCO | 5.43 µM | 11.8 µM | > 80 µM | – | 39.5 µM | – |
| COc1ccccc1Oc1c(NS(=O)(=O)c2ccc(C(C)(C)C)cc2)nc(-c2ncccn2)nc1OCCO [BOSENTAN] | 60.8 µM | > 80 µM | 67.4 µM | 53.6 µM | – | – |
| COc1ccccc1Oc1c(N)nc(-c2ccc(Br)cc2)nc1Cl | 0.014 µM | 4.44 µM | 0.063 µM | 0.014 µM | 58.6 µM | logS0 [3]: -4.416; LC50 at 96 h [4]: 3750 µg/mL (≈ 9.23 mM); AUC(0-t) [5]: 2400 ng·h/mL; AUC(0-inf) [6]: 5660 ng·h/mL; half-life [7]: 3.66 h; CL/F [8]: 743 mL/min/kg; Vd [9]: 228.602 L/kg; Activity [10]: 113.1 U/L; Activity [11]: 80.47 U/L; Activity [12]: 4.345 mmol/L; Activity [13]: 24.375 µmol/L; Activity [14]: Non-Toxic; inhibition in vivo at 80 mg/kg (A-375 [15]): 50.3% |
| COc1ccccc1Oc1c(N)nc(-c2ccccc2)nc1OCCO | 53.7 µM | 31.1 µM | > 80 µM | > 80 µM | – | – |
| COc1ccccc1Oc1c(N)nc(-c2ccccc2F)nc1Cl | 12.9 µM | 13.8 µM | > 80 µM | – | > 80 µM | – |
| COc1ccccc1Oc1c(N)nc(-c2cccc(F)c2)nc1Cl | – | 21.7 µM | – | – | 17 µM | – |
| COc1ccccc1Oc1c(N)nc(-c2cccc(C)c2)nc1OCCO | 1.17 µM | 70.9 µM | 1.38 µM | 14.7 µM | – | – |
| COc1ccccc1Oc1c(N)nc(-c2cccc(Cl)c2)nc1OCCO | 4.42 µM | 5.01 µM | 30.2 µM | 4.17 µM | – | – |
| COc1ccccc1Oc1c(N)nc(-c2cccc(Br)c2)nc1Cl | 35.8 µM | 24.6 µM | – | – | 16.1 µM | – |

More lines, in order of falling IC50 (Deoxyhypusine synthase), values ahead:

| IC50 (Deoxyhypusine synthase) | Compound | IC50 (B16) | IC50 (A-375 [1]) | IC50 (SK-MEL-28) | CC50 at 24 h [2] | further results |
| --- | --- | --- | --- | --- | --- | --- |
| 0.64 µM | COc1ccccc1Oc1c(N)nc(-c2ccc(F)cc2)nc1Cl | 2.99 µM | 28.2 µM | 31.9 µM | 42.6 µM | – |
| 0.56 µM | COc1ccccc1Oc1c(N)nc(-c2cccc(I)c2)nc1OCCO | 20.3 µM | 1.23 µM | 11.2 µM | – | – |
| 0.53 µM | COc1ccccc1Oc1c(N)nc(-c2ccccc2)nc1Cl | 4.61 µM | 7.22 µM | 3.14 µM | – | CC50 (HaCaT): Not Active |
| 0.33 µM | COc1ccccc1Oc1c(N)nc(-c2cccc(F)c2)nc1OCCO | 20.9 µM | 8.53 µM | 3.21 µM | – | – |
| 0.32 µM | COc1ccccc1Oc1c(N)nc(Cc2ccccc2)nc1OCCO | 47.4 µM | 0.2 µM | 14 µM | – | – |
| 0.18 µM | COc1ccccc1Oc1c(N)nc(-c2ccc(C)cc2)nc1OCCO | 8.43 µM | 2.38 µM | 6.19 µM | 56.6 µM | – |
| 0.18 µM | COc1ccccc1Oc1c(N)nc(-c2ccc(I)cc2)nc1Cl | 5.4 µM | 0.48 µM | 1.25 µM | – | – |
| 0.1 µM | COc1ccccc1Oc1c(N)nc(-c2ccc(Cl)cc2)nc1Cl | 18.8 µM | 1.03 µM | 0.12 µM | – | – |
| 0.05 µM | COc1ccccc1Oc1c(N)nc(Cc2ccccc2)nc1Cl | 39.1 µM | 15.7 µM | 8.65 µM | 30.6 µM | – |
| 0.04 µM | COc1cccc(-c2nc(N)c(Oc3ccccc3OC)c(Cl)n2)c1 | 23.6 µM | 24.6 µM | – | 14 µM | – |
